Experimental findings from patent publication US5741794A, “Heterocyclic sulfonamide derivatives as antagonists of PAF and angiotensin II” (British Biotech Pharmaceuticals Limited, priority 1992, dated 1998) are described below.

The structures appear in SMILES notation.

This test deals with T1, PAF receptor (Homo sapiens, UniProt P25105).
T1 construct: from tissue; host or cells: human platelets (platelet concentrates from a hospital blood bank), lysed platelet membranes
T1 sequence (P25105 whole entry): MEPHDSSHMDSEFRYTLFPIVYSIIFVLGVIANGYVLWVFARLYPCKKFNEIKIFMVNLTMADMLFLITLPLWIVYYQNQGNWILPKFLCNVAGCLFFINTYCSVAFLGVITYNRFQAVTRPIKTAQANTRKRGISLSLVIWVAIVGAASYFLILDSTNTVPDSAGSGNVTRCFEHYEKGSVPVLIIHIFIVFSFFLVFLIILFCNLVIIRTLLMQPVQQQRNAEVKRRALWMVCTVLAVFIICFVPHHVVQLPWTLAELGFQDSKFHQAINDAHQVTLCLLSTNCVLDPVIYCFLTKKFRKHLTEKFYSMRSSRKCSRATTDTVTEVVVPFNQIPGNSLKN
The test is described as follows: Inhibition of [^3 H]-PAF Receptor Binding (human platelet plasma membrane). The settings on record: 0.5 nM [^3 H]-PAF, 0° C., 1 hour incubation, pH 7.0. The method, then:
Inhibition of [^3 H]-PAF Receptor Binding
The inhibition of [^3 H]-PAF binding to human platelet plasma membrane by compounds of general formula I was determined by isotopic labelling and filtration techniques. Platelet concentrates were obtained from a hospital blood bank. These platelet concentrates (500-2500 mi.) were centrifuged at 800 rpm for 10 minutes in a SORVALL RC3B centrifuge to remove the red blood cells present. (The word SORVALL is a trade mark.) The supernatant was subsequently centrifuged at 3,000 rpm in a SORVALL RC3B centrifuge to pellet the platelets present. The platelet rich pellets were resuspended in a minimum volume of buffer (150 mM NaCl, 10 mM Tris, 2 mM EDTA, pH 7.5) and layered onto Ficoll-Paque gradients, 9 ml platelet concentrate to 2 ml Ficoll, and centrifuged at 1,900 rpm for 15 minutes in a SORVALL RT6000 centrifuge. This step removes the residual red blood cells and other nonspecific material such as lymphocytes from the preparation. The platelets which form a band between the plasma and the Ficoll were removed, resuspended in the above buffer and centrifuged at 3,000 rpm for 10 minutes in a SORVALL RT6000 centrifuge. The pelleted platelets were resuspended in buffer (10 mM Tris, 5 mM MgCl2, 2 mM EDTA, pH 7.0), snap freezed in liquid N2 and allowed to thaw slowly at room temperature in order to lyse the platelets. The latter step was repeated at least 3 times to ensure proper lysis. The lysed platelets were centrifuged at 3,000 rpm for 10 minutes in a SORVALL RT6000 centrifuge and resuspended in buffer. The latter step was repeated twice in order to remove any cytoplasmic proteins which may hydrolyse the platelet activating factor (PAF) receptor. The prepared platelet membranes may be stored at -70° C. After thawing the prepared membranes were centrifuged in a SORVALL RT6000 at 3,000 rpm for 10 minutes and resuspended in assay buffer.
The assay was conducted by preparing a series of Tris-buffered solutions of the selected antagonist of predetermined concentrations. […] Each washed residue was dried under vacuum on a sampling manifold and placed into vials containing 20 ml of OPTIPHASE MP scintillation fluid and the radioactivity counted in a liquid scintillation counter. (The word OPTIPHASE is a trade mark.) Defining the counts for total binding with antagonist from a test sample as "TBA"; the counts for total binding from the control sample C1 as "TB"; and the counts for nonspecific binding from the control sample C2 as "NSB", the percent inhibition of each test antagonist can be determined by the following equation: […]
For the compound `CCOC(=O)[C@H](CC(C)C)NS(=O)(=O)c1ccc(Cn2ccnc2-c2ccccc2)cc1` [Example 1, N-4-(1H-2-Phenylimidazolylmethyl)phenylsulphonyl-L-leucine ethyl ester], the IC50 (commonly the point on the concentration scale where inhibition reaches its midpoint) came to 7 nM.

`CCCCc1nc(Cl)c(CO)n1Cc1ccc(S(=O)(=O)N[C@@H](CC(C)C)C(=O)OCC)cc1` [Example 4, N-4-(1H-2-Butyl-4-chloro-5-hydroxymethylimidazolylmethyl)phenylsulphonyl-L-leucine ethyl ester]: the IC50 was 5 nM. The IC50 values of the last two compounds are within 1.5-fold of each other.

The compound `CCc1nccn1Cc1ccc(S(=O)(=O)N(C)[C@@H](CC(C)C)C(=O)OC)cc1` [Example 43, N-Methyl-N-4-(1H-2-ethylimidazolylmethyl)phenylsulphonyl-L-leucine methyl ester] gave an IC50 of 5 nM.

Turning to `CCOC[C@H](CC(C)C)NS(=O)(=O)c1ccc(Cn2cnc3cccnc32)cc1` [Example 45A, N-4-(3H-Imidazo[4,5-b]pyridylmethyl)phenylsulphonyl-L-leucinyl ethyl ether], the IC50 was 20 nM.
